The results in this text go back to patent US8168199B2, “Dipeptidyl peptidase IV inhibitors for the treatment of schizophrenia and depression” (priority 2000, dated 2012).

In this assay the test system is Male WistarF/Han (WF) rats. In words: Social interaction (SI) test of anxiety, i.c.v. P32/98 and NPY (Example 3). It is filed as in vivo, rat. The note with it: i.c.v. 5 pmol-500 nmol. On the procedure: Animals. […]
Animals were randomly divided into two sets of four experimental groups (n=5-6/group), which completed different consecutive SI test of anxiety. […] The time spent in active social interaction (SI-time), 1 h and 12 h food-intake were measured. […]
Social interaction (SI) test. […] Behavior was monitored using a video camera placed above the field inside the testing/isolation box. The SI behavior of both rats was recorded on-line from a monitor placed outside on top of the box. The following parameters were scored by an observer (HPN) unaware of the substrain of rats: duration of time spent in sniffing, following, crawling under and over other rats, but not passive body contact (resting, sleeping). […]
Statistical analysis. Data from repeated observations (food intake) were analyzed by two-way analyses of variance for repeated measures (ANOVA) (factors: “substrain” and “food intake” as repeated measure). […]

Take `CC[C@H](C)[C@H](N)C(=O)N1CCSC1` [P32/98]: the “time spent in active social interaction (SI-time), P32/98 alone” value is ““bell-shaped” dose-dependent anxiolytic-like effects”.
